{"source": "patent US20050215635A1", "about": "“Diarylheptanoid compounds and uses thereof” (priority 2004, published 2005)", "key": {"[1]": {"test_system": "IL-1β production from human PBMCs", "test": "IL-1β ELISA in supernatants of LPS-treated human PBMCs", "assay_type": "cell-based", "details": "18 hrs", "procedure": "The PBMCs were separated from peripheral blood of normal healthy human volunteers. […] Supernatant was harvested after 18 hrs and stored at −70° C. until tested. The quantity of IL-1β and TNF-α present in supernatants was estimated by ELISA (R&D systems, MN, USA) following manufacturer's instruction. A standard curve was obtained by plotting known concentrations of recombinant human IL-1β and TNF-α vs absorbance at 450 nm.\nEach data point represents mean+standard deviation (SD) of 3 replicates."}, "iNOS mRNA expression": {"test_system": "iNOS mRNA expression", "test": "Relative RT-PCR of iNOS mRNA expression in RAW 264.7 cells", "assay_type": "cell-based, mouse", "details": "RAW 264.7, 12 hrs", "procedure": "FIG. 4A and B: Effect of HMP on mRNA expression of iNOS and COX-2. Fig. A, RAW 264.7 cells were incubated in the presence of LPS (0.5 μg/ml) with or without HMP (12.5, 25 μM) for 12 hrs. Total RNA isolated from RAW 264.7 cells after 12 hrs of treatments with LPS alone or with various concentration of HMP was reverse transcribed to make cDNA and 2 μl (for iNOS) or 1 μl (for COX-2) of cDNA was amplified using gene specific primer (Ambion Inc). Ten μl of each PCR reaction was resolved in 2% agarose gel. Lane 1, control; 2. LPS (0.5 μg/ml); 3, LPS+HMP (12.5 μM) and Lane, 4 LPS+HMP (25 μM). Fig. B, Histogram showing densitometric analysis of iNOS and COX-2 mRNA expression. […] This experiment was repeated 3 times separately with similar observation.\nThe RAW 264.7 cells were cultured (10^6/well) in 6 well plate for 24 hrs and then medium was replaced by fresh medium and different concentrations of HMP either alone or in combination of LPS was added and further cultured for 12 hrs. […] Linear range of amplification of iNOS and COX-2 cDNA (2 μl for COX-2 and 1μl for iNOS of RT reaction mixture) was determined using gene specific primers from Ambion Inc (TX, USA), following manufacturer's instruction. The optimum amount of 18S primer and competitor for iNOS and COX-2 gene were also determined as per manufacturer's instruction. […]"}, "p38 MAPK phosphorylation": {"test_system": "p38 MAPK phosphorylation", "test": "Western blotting of LPS induced phosphorylation of p38 MAPK in RAW 264.7 cells", "assay_type": "cell-based, mouse", "details": "HMP 25 μM + LPS (0.5 μg/ml), RAW 264.7, 30 min and 60 min", "procedure": "FIG. 5A and 5B. Effect of HMP on LPS induced MAPKs activation. FIG. 5A, Total protein lysates of RAW 264.7 were prepared after treatment with HMP and/or LPS for indicated times and 40 μg of protein lysates were resolved and probed for phosphorylated (pp44/42 and pp38) and basal p44/42 and p38, using specific monoclonal antibodies as described in material and methods. FIG. 5B, Integrated density of phosphorylated p44/42 (pp44/42) as measured by Scion software. This experiment was repeated 4 times with similar results.\nAt indicated time points, cells were rapidly washed with ice-cold PBS and solubilized in cold lysis buffer containing 10 mM Tris-base, 5 mM EDTA, 50 mM NaCl, 1% Triton X-100, 5 mM phenylmethylsulfonyl fluoride (PMSF), 2 mM sodium orthovanadate, 10 μg/ml leupeptin, 25 μg/ml aprotinin, 1 mM sodium pyrophosphate, and 20% glycerol. […]\nEqual amount of protein (40 μg) from each sample was loaded on SDS-polyacrylamide electrophoresis gel (8 and 10% separating gels for iNOS and p42/44^MAPK, respectively) and resolved for 1.5 h at 120 V in buffer containing 95 mM Tris-HCl, 960 mM glycine, and 0.5% SDS. […] Specific bands were detected by enhanced chemiluminescence's detection system (Amersham-Pharmacia biotech, NJ, USA) and the membrane was exposed to X-ray film. […]"}}}
{"compound": "COc1cc(CC/C=C/C(=O)CCc2ccccc2)ccc1O", "note": "[AO-4, 7-(4″-hydroxy-3″-methoxyphenyl)-1-phenyl-hept-4-en-3-one]", "values": [{"measurement": "IL-1β", "setting": "[1]; HMP 6.25 μM + LPS (10 ng/ml)", "value": "339.21 ± 10.53", "unit": "pg/mL"}, {"measurement": "IL-1β", "setting": "[1]; HMP 6.25 μM alone", "value": "22.12 ± 3.33", "unit": "pg/mL"}, {"measurement": "IL-1β", "setting": "[1]; HMP 12.5 μM + LPS (10 ng/ml)", "value": "113.43 ± 3.81", "unit": "pg/mL"}, {"measurement": "IL-1β", "setting": "[1]; HMP 12.5 μM alone", "value": "24.45 ± 1.03", "unit": "pg/mL"}, {"measurement": "IL-1β", "setting": "[1]; HMP 25 μM + LPS (10 ng/ml)", "value": "77.27 ± 4.6", "unit": "pg/mL"}, {"measurement": "IL-1β", "setting": "[1]; HMP 25 μM alone", "value": "23.28 ± 1.41", "unit": "pg/mL"}, {"measurement": "LPS induced secretion of IL-1β (in words)", "setting": "[1]; HMP 6.25-25 μM + LPS", "value": "significantly in dose dependent fashion"}, {"measurement": "inhibition of LPS induced iNOS mRNA expression (densitometry, ratio to 18 S RNA)", "setting": "iNOS mRNA expression; HMP 12.5 μM + LPS (0.5 μg/ml)", "value": 47.8, "unit": "%"}, {"measurement": "inhibition of LPS induced iNOS mRNA expression (densitometry, ratio to 18 S RNA)", "setting": "iNOS mRNA expression; HMP 25 μM + LPS (0.5 μg/ml)", "value": 75.5, "unit": "%"}, {"measurement": "LPS induced phosphorylation of p38 (in words)", "setting": "p38 MAPK phosphorylation", "value": "no effect"}]}
